Results: ChEMBL document CHEMBL2074243, “Mitochondria-targeting drug oligomycin blocked P-glycoprotein activity and triggered apoptosis in doxorubicin-resistant HepG2 cells” (Chemotherapy, 2004)

Target: ATP-dependent translocase ABCB1 (Homo sapiens, UniProt P08183)
Assay: TP_TRANSPORTER: drug resistance in R-HepG2 cells
Format: functional, cell-based

Chain of ATP-dependent translocase ABCB1 (P08183 whole entry): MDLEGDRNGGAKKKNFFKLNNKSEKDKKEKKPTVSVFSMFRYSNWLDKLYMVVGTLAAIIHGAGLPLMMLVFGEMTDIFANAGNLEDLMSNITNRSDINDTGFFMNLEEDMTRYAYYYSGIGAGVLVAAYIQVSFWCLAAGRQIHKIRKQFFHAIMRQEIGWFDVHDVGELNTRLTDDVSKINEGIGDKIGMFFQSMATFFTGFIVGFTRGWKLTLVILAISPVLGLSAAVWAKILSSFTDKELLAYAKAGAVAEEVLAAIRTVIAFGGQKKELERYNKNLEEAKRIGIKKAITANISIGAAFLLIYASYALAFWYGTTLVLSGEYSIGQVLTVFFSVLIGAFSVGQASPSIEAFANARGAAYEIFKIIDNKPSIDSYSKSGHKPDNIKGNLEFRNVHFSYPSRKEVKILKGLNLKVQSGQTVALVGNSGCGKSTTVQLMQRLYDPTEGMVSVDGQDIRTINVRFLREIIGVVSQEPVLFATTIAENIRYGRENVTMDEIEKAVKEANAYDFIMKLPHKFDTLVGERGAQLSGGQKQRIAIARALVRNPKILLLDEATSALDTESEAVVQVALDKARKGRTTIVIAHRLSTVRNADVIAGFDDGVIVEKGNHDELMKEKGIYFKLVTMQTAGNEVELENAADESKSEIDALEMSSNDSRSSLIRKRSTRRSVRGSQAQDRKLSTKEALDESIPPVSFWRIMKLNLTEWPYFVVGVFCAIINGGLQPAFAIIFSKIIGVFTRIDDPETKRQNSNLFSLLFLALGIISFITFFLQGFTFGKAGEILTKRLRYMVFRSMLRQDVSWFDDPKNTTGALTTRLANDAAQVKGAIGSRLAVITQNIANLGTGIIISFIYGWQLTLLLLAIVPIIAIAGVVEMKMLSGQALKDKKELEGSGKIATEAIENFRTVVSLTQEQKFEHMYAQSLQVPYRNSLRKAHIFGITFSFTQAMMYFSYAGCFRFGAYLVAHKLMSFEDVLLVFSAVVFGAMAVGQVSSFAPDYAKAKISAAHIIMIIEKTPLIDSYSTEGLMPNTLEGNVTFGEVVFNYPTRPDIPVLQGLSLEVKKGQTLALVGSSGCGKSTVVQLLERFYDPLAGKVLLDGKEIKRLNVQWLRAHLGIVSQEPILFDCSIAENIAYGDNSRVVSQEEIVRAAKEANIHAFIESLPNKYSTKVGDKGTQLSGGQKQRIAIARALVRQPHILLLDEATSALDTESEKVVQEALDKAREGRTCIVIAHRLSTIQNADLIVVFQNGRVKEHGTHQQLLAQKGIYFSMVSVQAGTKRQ

Compound	Activity
COc1cccc2c1C(=O)c1c(O)c3c(c(O)c1C2=O)C[C@@](O)(C(=O)CO)C[C@@H]3O[C@H]1C[C@H](N)[C@H](O)[C@H](C)O1 [DOXORUBICIN]	substrate [+]
CISPLATIN	substrate [+]
CC(=O)O[C@H]1C(=O)[C@@]2(C)[C@H]([C@H](OC(=O)c3ccccc3)[C@]3(O)C[C@H](OC(=O)[C@H](O)[C@@H](NC(=O)c4ccccc4)c4ccccc4)C(C)=C1C3(C)C)[C@]1(OC(C)=O)CO[C@@H]1C[C@@H]2O [PACLITAXEL]	substrate [+]
